The text below walks through data of patent publication US20060264362A1, “Method of modulating smooth muscle cell functioning by modulating sphingosine kinase mediated signalling” (Medvet Science Pty. Ltd., priority 2003, published 2006).

“Also recorded” adds a separate entry of the source.

Assay [1] relates to resistance arteries. The assay can be described thus: S1P-induced vasoconstriction of resistance arteries. The note with it: for effect on S1P-induced constrictions: S1P <1 μmol/L. The assay is classed as cell-based, hamsters. An excerpt: (§1) The care of the animals and the experimental procedures were in accordance with German animal protection laws. The preparation of the vessels and the technique of calcium (fura 2) and diameter measurements were previously described (Bolz et al., 1999, supra; Bolz S S, Fisslthaler B, Pieperhoff S et al., FASEB J. 2000;14:255-260). Briefly, RA (maximal outer diameter 180-250 μm) from gracilis muscle of female hamsters were cannulated with micropipettes and studied at 45 mmHg transmural pressure. Fura 2 was alternatingly excited at 340 or 380 nm. The ratio F340nm/F380nm at 510 nm was calculated after subtraction of the background fluorescence (obtained after fura 2-quenching with 8 mmol/L MnCl2). Diameters were simultaneously recorded by videomicroscopy at wavelengths>610 nm to avoid interference with fura 2-measurements.
The technique to transfect intact C3 transferase protein using Trans LT was previously described (Bolz et al., 2000, supra).
Changes in diameter and [Ca^2+]i were continuously recorded in 70 vessels from 41 animals. All vessels studied developed spontaneous tone (9.6±1% of maximal diameter). The viability of each vessel was assessed by its constriction to NE (0.3 μmol/L) and a dilation>80% in response to 1 μmol/L ACh.

The test system of assay [2] is depolarized resistance arteries. The assay can be described thus: Apparent Ca2+-sensitivity of depolarized resistance arteries (120 mmol/L K+, Ca2+ex 0-3 mmol/L). The note with it: for effect on NO (SNP)-induced Ca^2+-desensitization: 10 μmol/L SNP, ODQ 1 μmol/L, calyculin A 120 nmol/L, S1P 10 nmol/L or RhoA^Ala-188 transfection. The assay is classed as cell-based, hamsters.
Text: as §1
To transfect plasmids containing C3 transferase or the respective mutated RhoA sequences (N19RhoA, RhoA^Ala-188) into VSMCs, arteries were incubated for 18-21 h in a artery culture system (Bolz et al., 2000, supra) with culture medium containing antibiotics, the transfectant Effectene® (16 μl/ml) and 5 μg of the respective plasmid. Unspecific effects of the transfection procedure were assessed by comparing vascular responses of non-transfected RA and arteries transfected with green fluorescent protein (GFP).
The apparent Ca^2+-sensitivity of the arteries was assessed by stepwise increasing the extracellular Ca^2+ concentration (Ca^2+, 0-3 mmol/L) around the arteries kept in depolarizing solution (120 mmol/L K^+). Depolarization-dependent opening of voltage-gated calcium channels allowed increases in Ca^2+ ex to be reproducibly followed by increases in VSMC [Ca^2+]i (Bolz et al., 2000, supra). The Ca^2+-sensitivity was assessed under control conditions, in the presence of SNP and in the combined presence of SNP and the respective modulating substance or protein (ODQ, calyculin A, S1P, RhoA^Ala-188).

In the next assay the test system is smooth muscle Ca^2+. The assay can be described thus: Pressure-induced increases in smooth muscle Ca2+ (fura 2). Format: cell-based, syrian hamsters. The note with it: inhibition of RhoA/Rho kinase pathway. As to the method: (§2) After termination of the culture period resistance arteries were washed with MOPS-buffered salt solution and transferred to an inverted microscope. Incubation with fura 2 (2 h at 37° C.) from the abluminal side allowed selective determination of smooth muscle Ca^2+ within the vascular wall. Simultaneous measurements of smooth muscle intracellular Ca^2+ and diameter were performed as described previously (Bolz, S. S., de Wit, C., Pohl, U. (1999) supra). In all 116 arteries included in the study, smooth muscle and endothelial function was assessed by testing all resistance arteries for their constrictor response to norepinephrine (NE 0.3 μmol/L) and their dilator response to acetylcholine (ACh, 1 μmol/L). […] Measurements were performed at 37° C.
(§3) To compare Ca^2+i and diameter changes over time after application of pressure, a non-linear regression analysis was employed. Briefly, the goodness of the fit to a Gompertz function was calculated for every individual curve at first and then for pooled data sets.

Assay [3] deals with isolated resistance arteries. The assay can be described thus: Pressure-induced myogenic response (reversal of initial distension), 45 to 110 mmHg. Format: cell-based, syrian hamsters.
Text: The preparation of the vessels, the technique of calcium and diameter measurements (Bolz, S. S., de Wit, C., Pohl, U. (1999) Br J Pharmacol 128:124-134) as well as the artery culture and transfection method (Bolz, S. S., Pieperhoff, S., de Wit, C. et al. (2000) Am J Physiol Heart Circ Physiol 279:H1434-H1439) were previously described in more detail. Briefly, segments of small resistance arteries (maximal diameter 213±3 μm, n+116) were excised from the gracilis muscle of female syrian hamsters, cannulated with glass micropipettes and perfused with culture medium at a transmural pressure of 45 mmHg. for selective transfection of smooth muscle cells, 60 μl/mL transfection reagent (Effectene, Qiagen, Germany) and 5 μg of the respective DNA plasmid were added to the organ bath for 20-22 h.
as §2
Myogenic responses were described as % reversal of initial distension (RID) calculated as RID=((diadistended−diatime)/(diadistended−diarest))×100, with diatime being the actual diameter of the artery at a given time point after increase in transmural pressure.
as §3

A further assay has as its system MYPT1. The assay can be described thus: Translocation of MLCP myosin-binding subunit MYPT1 (immunofluorescence, western blot). Format: cell-based, hamster. How it is done: (§4) Arteries were fixed with 3.7% formaldehyde, permeabilized with 0.3% Triton X-100, blocked with 1% BSA and incubated with the primary antibody (MLCP: rabbit anti-mouse, 1:200, Covance; RhoA: mouse monoclonal, 1:200, Santa Cruz Biotechnology). FITC-labelled goat anti-rabbit or donkey anti-mouse (1:200, each) were used as secondary antibodies. Images were obtained using a Zeiss LSM410 confocal microscope equipped with a Kr/Ar laser and a 40×/1.2 W water immersion objective.
Tissue samples of hamster aorta were quick-frozen in liquid nitrogen and homogenized. Cytosolic and particulate fractions were separated by centrifugation of the homogenate at 100.000 g (Beckman Coulter, Optima Max-E). Pellets were resuspended in lysis buffer plus 1% Triton-X 100. Protein-matched samples were electrophoresed by SDS-PAGE (7%), transferred to nitrocellulose membranes (Amersham), and subjected to immunostaining using a polyclonal primary antibody (rabbit anti-mouse, 1:500). An HRP-labelled secondary antibody (goat anti-rabbit, 1:10000, Santa Cruz) was used with ECLplus (Amersham) to visualize the signal.
For orientation: In western blotting, separated proteins are transferred to a membrane and probed.

The test system of assay [4] is resistance arteries. The assay can be described thus: SNP (NO)-induced dilations in preconstricted resistance arteries. Format: cell-based, hamsters. The note with it: for preconstriction level (diameter): 1 μmol/L S1P or 0.3 μmol/L NE.
Text: as §1
Additionally, dose-response curves for SNP were obtained in arteries preconstricted by 0.3 μmmol/L NE under control conditions, in the presence of the Rho kinase inhibitor Y27632 (1 μmol/L) or in N19RhoA-transfected arteries.
(§5) Dilations are expressed as “% of maximum dilation”=[(diaVD−diaNE)/(diamax−diaNE)]×100, with diaVD and diaNE representing steady state diameters 2 min after administration of […] and diamax being the maximal diameter obtained in Ca^2+-free 1 mmol/L EGTA-containing MOPS buffer.

The subject of assay [5] is isolated resistance arteries. The assay can be described thus: Resting tone in isolated, transfected resistance arteries. The assay is classed as cell-based, syrian hamsters. The note with it: 10 nmol/L. An excerpt: The preparation of the vessels, the technique of calcium and diameter measurements (Bolz, S. S., de Wit, C., Pohl, U. (1999) Br J Pharmacol 128:124-134) as well as the artery culture and transfection method (Bolz, S. S., Pieperhoff, S., de Wit, C. et al. (2000) Am J Physiol Heart Circ Physiol 279:H1434-H1439) were previously described in more detail. […]
After termination of the culture period resistance arteries were washed with MOPS-buffered salt solution and transferred to an inverted microscope. […] In all 116 arteries included in the study, smooth muscle and endothelial function was assessed by testing all resistance arteries for their constrictor response to norepinephrine (NE 0.3 μmol/L) and their dilator response to acetylcholine (ACh, 1 μmol/L). […]
Tone was calculated as % of maximal diameter [tone(% of diamax)=((diamax−diarest)/diamax)×100] that was determined at the end of every experiment in Ca^2+-free solution under stimulation with 1 μmol/L ACh.

For the next assay, the system named is RhoA. The assay can be described thus: RhoA translocation (immunostaining). The note with it: 10 nmol/L S1P, 2 min. Format: cell-based, hamsters. As to the method:
as §4

In assay [6] the test system is resistance arteries. The assay can be described thus: Ca2+-dependent dilations induced by ACh or NS1619. Format: cell-based, hamsters.
Text: as §1, §5

[7] abbreviates: S1P 0.001 μmol/L plus named inhibitor.
Setting [8] is: S1P 0.01 μmol/L plus named inhibitor.
Setting [9] is: S1P 0.1 μmol/L plus named inhibitor.
Setting [10] is: S1P 1 μmol/L plus named inhibitor.

With C3 transferase, the “S1P-induced vasoconstriction after inhibition of RhoA or Rho kinase” value is reported as 0.7 ± 0.3 % of diamax in the assay with resistance arteries [1] (setting [7]), 0.5 ± 0.6 % of diamax in the assay with resistance arteries [1] (setting [8]), −2.8 ± 0.7 % of diamax in the assay with resistance arteries [1] (setting [9]) and −18.1 ± 2.9 % of diamax with resistance arteries [1] (setting [10]). The “effect on S1P-induced constrictions” value with resistance arteries [1] is “abolished”. Besides, the “Ca^2+/diameter curve (Ca^2+-sensitivity of the contractile apparatus)” value in assay [2] (C3 transferase-transfected arteries) is “significantly shifted to the right; also recorded: significantly desensitized”.
Turning to `C[C@@H](N)[C@H]1CC[C@H](C(=O)Nc2ccncc2)CC1` [Y27632], in the assay on smooth muscle Ca^2+, the “pressure-induced increases in Ca^2+” value came out at 19±3%. Besides, the “S1P-induced vasoconstriction after inhibition of RhoA or Rho kinase” value in the assay on resistance arteries [1] (setting [7]) is given as 0.1 ± 0.4 % of diamax; in the assay with resistance arteries [1] (setting [8]), −0.4 ± 0.2 % of diamax; in the assay with resistance arteries [1] (setting [9]), −3.4 ± 1.8 % of diamax; with resistance arteries [1] (setting [10]) it was −20.0 ± 7.2 % of diamax. The “effect on S1P-induced constrictions” value in the assay on resistance arteries [1] is reported as “abolished”. For the same molecule, the “S1P-augmented myogenic response after blocker” value in [3] (10 nmol/L S1P plus Rho kinase inhibitor) was found to be 3±1 % RID. In addition, the “myogenic response, reversal of initial distension (RID)” value in [3] (pressure 45 to 110 mmHg, steady state after 4 min) turned out to be 1±2 % RID. Besides, the “S1P-induced MYPT1 translocation after RhoA/Rho kinase inhibition” value with MYPT1 (N19RhoA-transfected or Y27632 (1 μmol/L)-pretreated arteries) is listed as “absent”. The “effect on NO-induced dilations” value in the assay with resistance arteries [4] (NE 0.3 μmol/L-preconstricted, Y27632 1 μmol/L or N19RhoA overexpression) is reported as “significantly augmented”. Besides, the “diameter at NE-induced tone” value in the assay with resistance arteries [4] (NE 0.3 μmol/L, Y27632 1 μmol/L) is 115±5 μm. The molecule also gave a resting diameter in the assay on resistance arteries [4] (Y27632 1 μmol/L) of 195±18 μm.
`O=c1onc2cnc3ccccc3n12` [ODQ]: the “effect on NO (SNP)-induced Ca^2+-desensitization” value in [2] was “blocked; also recorded: completely reversed”.
`COC[C@@H]([C@H](O)[C@H](O)C(=O)NCC[C@H](C)c1nc(/C=C/C[C@@H]2O[C@]3(C[C@@H](O)[C@@H]2C)O[C@H]([C@H](C[C@H](O)[C@H](C)[C@H](O)[C@H](C)/C=C(C)/C(C)=C/C=C/C(C)=C\C#N)OC)[C@H](OP(=O)(O)O)C3(C)C)co1)N(C)C` [calyculin A]: the “effect on NO (SNP)-induced Ca^2+-desensitization” value was “reversed” in assay [2] and “almost abolished” in [2] (listed as Calyculin A).
With `NC[C@H](O)c1ccc(O)c(O)c1` [NE, Norepinephrine], the “preconstriction level (diameter)” value in the assay with resistance arteries [4] came to 128±2 μm.
Consider `CCCCCCCCCCCCC/C=C/[C@@H](O)[C@@H](N)COP(=O)(O)O` [S1P, sphingosine-1-phosphate], for which the “S1P-induced vasoconstriction, Control” value is −0.2 ± 0.4 % of diamax with resistance arteries [1] (S1P 0.001 μmol/L), −7.7 ± 2.4 % of diamax in the assay on resistance arteries [1] (S1P 0.01 μmol/L), −27.0 ± 3.4 % of diamax with resistance arteries [1] (S1P 0.1 μmol/L) and −45.0 ± 2.0 % of diamax with resistance arteries [1] (S1P 1 μmol/L). Besides, in assay [3] (10 nmol/L S1P), the “myogenic response with exogenous S1P” value came to 144±11 % RID. Moreover, in the assay on MYPT1 (S1P, 2 min), the “translocation of MYPT1 to the smooth muscle cell plasmamembrane” value was “induced a translocation”. The “preconstriction level (diameter)” value in the assay with resistance arteries [4] is recorded as 130±10 μm. In addition, in the assay with resistance arteries [4] (SNP 1 μmol/L, preconstriction 1 μmol/L S1P vs 0.3 μmol/L NE), the “reduction of SNP-induced dilations after preconstriction with S1P vs NE” value came to 64±8%. Also, in assay [5], the “constriction induced by S1P itself” value was “no significant constrictions”. Moreover, in the assay on RhoA, the “RhoA localisation after stimulation” value is recorded as “translocated to the membrane; also recorded: translocation to the membrane”. In addition, the “effect on NO (SNP)-induced Ca^2+-desensitization” value in assay [2] is recorded as “abolished; also recorded: blocked”. Moreover, in assay [2] (S1P 10 nmol/L, Ca^2+ex 0.25-0.75 mmol/L), the “effect of S1P per se on Ca^2+-sensitivity” value is “increased the Ca^2+-sensitivity only in a medium concentration range”.
As to charybdotoxin, the “effect on dilations by ACh (+L-NA/indomethacin) and NS1619” value with resistance arteries [6] is reported as “abolished”.
